Test results from ChEMBL document CHEMBL5257017, “Small Molecule CXCR3 Antagonists” (J Med Chem, 2016).
≈ marks a conversion by molar mass, not a printed value.

Key:
[1] = biological target: T1, C-X-C chemokine receptor type 3 (Homo sapiens, UniProt P49682); assay: Antagonist activity at human CXCR3 assessed as reduction in CXCL11 induced calcium flux by [35S]GTPgammaS binding assay
T1 sequence (P49682 whole entry): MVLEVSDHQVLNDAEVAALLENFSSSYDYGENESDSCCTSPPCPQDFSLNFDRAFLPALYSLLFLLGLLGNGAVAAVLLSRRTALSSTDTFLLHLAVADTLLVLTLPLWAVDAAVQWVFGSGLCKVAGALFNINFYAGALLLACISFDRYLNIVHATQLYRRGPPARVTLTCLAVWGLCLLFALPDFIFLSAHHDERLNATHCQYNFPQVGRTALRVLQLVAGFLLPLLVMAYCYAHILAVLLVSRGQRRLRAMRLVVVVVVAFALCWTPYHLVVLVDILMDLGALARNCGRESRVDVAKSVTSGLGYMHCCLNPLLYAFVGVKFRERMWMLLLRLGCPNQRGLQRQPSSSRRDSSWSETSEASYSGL

[2] = biological target: T1, C-X-C chemokine receptor type 3; assay: Antagonist activity at CXCR3 (unknown origin) assessed as reduction in CXCL11 induced calcium flux by FLIPR method
[3] = biological target: T1, C-X-C chemokine receptor type 3; assay: Antagonist activity at CXCR3 (unknown origin) assessed as reduction in CXCL11 induced calcium flux by flow cytometry
[4] = biological target: T1, C-X-C chemokine receptor type 3; assay: Displacement of [125I]-CXCL10 from CXCR3 in human PBMC cells; type: cell-based
[5] = AUC in rat at 10 mg/kg, po; type: ADME, organism-based; set-up: dose 10 mg/kg, route po; conditions: in vivo
[6] = biological target: T1, C-X-C chemokine receptor type 3; assay: Antagonist activity at CXCR3 (unknown origin) assessed as reduction in CXCL10 induced calcium flux by [35S]GTPgammaS binding assay
[7] = biological target: T1, C-X-C chemokine receptor type 3; assay: Antagonist activity at CXCR3 (unknown origin) assessed as reduction in CXCL10 induced calcium flux by flow cytometry
[8] = biological target: T1, C-X-C chemokine receptor type 3; assay: Antagonist activity at CXCR3 (unknown origin) assessed as reduction in CXCL10 induced calcium flux by FLIPR method
[9] = biological target: T2, C-X-C chemokine receptor type 3 (Mus musculus, UniProt O88410); assay: […] of CXCR3 receptor internalization in mouse whole blood in presence of CXCl10 by flow cytometry; type: tissue-based
T2 sequence (O88410 whole entry): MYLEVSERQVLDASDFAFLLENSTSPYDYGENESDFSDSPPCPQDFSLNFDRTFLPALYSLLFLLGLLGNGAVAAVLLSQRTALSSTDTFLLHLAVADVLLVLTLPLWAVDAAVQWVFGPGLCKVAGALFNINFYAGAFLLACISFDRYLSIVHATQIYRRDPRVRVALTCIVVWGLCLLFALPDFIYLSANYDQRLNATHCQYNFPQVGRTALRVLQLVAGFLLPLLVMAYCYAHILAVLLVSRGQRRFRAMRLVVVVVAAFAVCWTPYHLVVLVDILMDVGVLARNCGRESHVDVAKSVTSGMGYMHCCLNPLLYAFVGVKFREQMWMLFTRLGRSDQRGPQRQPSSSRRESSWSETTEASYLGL

[10] = Volume of distribution in mouse at 10 mg/kg. po or 0.2 mg/kg, iv; type: ADME, organism-based; conditions: in vivo
[11] = Clearance in rat at 10 mg/kg, po or 0.2 mg/kg, iv; type: ADME, organism-based; conditions: in vivo
[12] = Lipophilicity, logD of compound at pH 7.4; type: physicochemical; conditions: buffer
[13] = Oral bioavailability in mouse at 30 mg/kg; type: ADME, organism-based; conditions: in vivo
[14] = Clearance in mouse at 30 mg/kg, po; type: ADME, organism-based; conditions: in vivo
[15] = Intrinsic clearance in mouse liver microsomes; type: ADME, Microsome
[16] = AUC in mouse at 10 mg/kg, po; type: ADME, organism-based; set-up: dose 10 mg/kg, route po; conditions: in vivo
[17] = biological target: C-X-C chemokine receptor type 3 (Homo sapiens) (UniProt P49682); assay: Inhibition of CXCR3 at 20 to 50 uM relative to control
hERG (KCNH2) [18] = biological target: T3, hERG (KCNH2) (Homo sapiens, UniProt Q12809); assay: Inhibition of hERG at 10 uM relative to control; type: toxicity
[19] = biological target: Voltage-gated inwardly rectifying potassium channel KCNH2 (Homo sapiens, UniProt Q12809); assay: Inhibition of hERG; type: toxicity
[20] = AUC in rat at 2 mg/kg, po; type: ADME, organism-based; set-up: dose 2 mg/kg, route po; conditions: in vivo
[21] = Clearance in rat at 10 mg/kg, po or 5 mg/kg, iv; type: ADME, organism-based; conditions: in vivo
[22] = Half life in mouse at 10 mg/kg, po or 5 mg/kg, iv; type: ADME, organism-based; conditions: in vivo
[23] = Oral bioavailability in mouse at 10 mg/kg; type: ADME, organism-based; conditions: in vivo
[24] = biological target: T1, C-X-C chemokine receptor type 3; assay: Displacement of [125I]-CXCL10 from CXCR3 in human PBMC cells by scintillation proximity assay; type: cell-based
hERG (KCNH2) [25] = biological target: T3, hERG (KCNH2); assay: Inhibition of hERG at 3 uM relative to control; type: toxicity
[26] = biological target: T1, C-X-C chemokine receptor type 3; assay: Antagonist activity at CXCR3 (unknown origin)
[27] = biological target: C-C chemokine receptor type 6 (Homo sapiens) (UniProt P51684); assay: Antagonist activity at CCR6 (unknown origin)
[28] = biological target: T4, C-X-C chemokine receptor type 2 (Homo sapiens, UniProt P25025); assay: Antagonist activity at CXCR2 (unknown origin)
T4 sequence (P25025 whole entry): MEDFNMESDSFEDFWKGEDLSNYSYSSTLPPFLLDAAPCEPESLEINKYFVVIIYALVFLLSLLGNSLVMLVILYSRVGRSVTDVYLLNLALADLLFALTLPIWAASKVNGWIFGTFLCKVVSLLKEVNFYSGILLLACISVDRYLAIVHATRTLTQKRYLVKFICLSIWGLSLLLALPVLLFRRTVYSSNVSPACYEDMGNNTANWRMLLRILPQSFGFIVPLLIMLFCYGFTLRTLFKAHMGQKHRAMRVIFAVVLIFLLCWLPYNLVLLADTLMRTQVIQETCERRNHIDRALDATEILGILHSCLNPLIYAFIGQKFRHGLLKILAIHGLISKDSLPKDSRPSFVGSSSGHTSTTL

[29] = biological target: C-C chemokine receptor type 4 (Homo sapiens) (UniProt P51679); assay: Antagonist activity at CCR4 (unknown origin)
[30] = biological target: C-C chemokine receptor type 7 (Homo sapiens) (UniProt P32248); assay: Antagonist activity at CCR7 (unknown origin)
[31] = Half life in rat at 2.0 mg/kg, po or 0.5 mg/kg, iv; type: ADME, organism-based; conditions: in vivo
[32] = Solubility of compound; type: physicochemical

T3 sequence (Q12809 whole entry): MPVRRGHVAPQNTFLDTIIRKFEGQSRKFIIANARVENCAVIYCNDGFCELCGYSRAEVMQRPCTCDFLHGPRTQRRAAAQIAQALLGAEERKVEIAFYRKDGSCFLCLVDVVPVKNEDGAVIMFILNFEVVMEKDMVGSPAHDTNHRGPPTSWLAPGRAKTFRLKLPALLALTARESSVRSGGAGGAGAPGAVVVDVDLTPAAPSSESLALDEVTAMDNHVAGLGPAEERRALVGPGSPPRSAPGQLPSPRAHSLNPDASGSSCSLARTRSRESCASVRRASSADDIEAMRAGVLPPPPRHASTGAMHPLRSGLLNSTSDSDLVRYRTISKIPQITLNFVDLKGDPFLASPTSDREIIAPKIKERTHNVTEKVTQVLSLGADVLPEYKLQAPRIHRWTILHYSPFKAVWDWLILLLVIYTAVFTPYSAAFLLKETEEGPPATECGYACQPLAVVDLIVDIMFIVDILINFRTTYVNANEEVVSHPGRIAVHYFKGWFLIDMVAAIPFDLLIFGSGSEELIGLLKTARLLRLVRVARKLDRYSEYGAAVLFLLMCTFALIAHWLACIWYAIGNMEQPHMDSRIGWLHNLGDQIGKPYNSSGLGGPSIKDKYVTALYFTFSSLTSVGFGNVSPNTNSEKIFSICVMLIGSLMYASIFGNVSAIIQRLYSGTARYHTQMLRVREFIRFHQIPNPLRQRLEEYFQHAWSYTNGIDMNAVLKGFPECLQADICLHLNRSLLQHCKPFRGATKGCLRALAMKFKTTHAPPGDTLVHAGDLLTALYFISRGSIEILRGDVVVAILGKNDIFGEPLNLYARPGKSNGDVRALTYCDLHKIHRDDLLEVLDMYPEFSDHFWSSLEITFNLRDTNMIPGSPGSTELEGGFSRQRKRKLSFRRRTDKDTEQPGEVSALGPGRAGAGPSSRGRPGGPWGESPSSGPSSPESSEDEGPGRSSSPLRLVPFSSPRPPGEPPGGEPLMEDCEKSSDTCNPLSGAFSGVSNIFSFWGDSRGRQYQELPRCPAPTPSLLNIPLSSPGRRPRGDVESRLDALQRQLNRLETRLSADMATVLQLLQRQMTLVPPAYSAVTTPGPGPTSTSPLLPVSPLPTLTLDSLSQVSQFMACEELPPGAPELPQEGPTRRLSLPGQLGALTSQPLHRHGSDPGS
Voltage-gated inwardly rectifying potassium channel KCNH2, sequence (Q12809 whole entry): as above
C-C chemokine receptor type 6 (Homo sapiens), sequence (P51684 whole entry, looked up): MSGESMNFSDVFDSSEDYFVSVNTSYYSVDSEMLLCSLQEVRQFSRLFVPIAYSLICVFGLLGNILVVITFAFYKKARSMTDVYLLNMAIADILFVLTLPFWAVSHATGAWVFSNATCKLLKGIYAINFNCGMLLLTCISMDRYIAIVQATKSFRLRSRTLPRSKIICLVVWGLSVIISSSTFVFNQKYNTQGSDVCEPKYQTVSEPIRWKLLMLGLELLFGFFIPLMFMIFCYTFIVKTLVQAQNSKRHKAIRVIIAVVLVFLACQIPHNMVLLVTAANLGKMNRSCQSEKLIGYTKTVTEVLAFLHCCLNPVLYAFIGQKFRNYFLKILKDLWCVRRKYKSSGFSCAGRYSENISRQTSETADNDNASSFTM
C-C chemokine receptor type 7 (Homo sapiens), sequence (P32248 whole entry, looked up): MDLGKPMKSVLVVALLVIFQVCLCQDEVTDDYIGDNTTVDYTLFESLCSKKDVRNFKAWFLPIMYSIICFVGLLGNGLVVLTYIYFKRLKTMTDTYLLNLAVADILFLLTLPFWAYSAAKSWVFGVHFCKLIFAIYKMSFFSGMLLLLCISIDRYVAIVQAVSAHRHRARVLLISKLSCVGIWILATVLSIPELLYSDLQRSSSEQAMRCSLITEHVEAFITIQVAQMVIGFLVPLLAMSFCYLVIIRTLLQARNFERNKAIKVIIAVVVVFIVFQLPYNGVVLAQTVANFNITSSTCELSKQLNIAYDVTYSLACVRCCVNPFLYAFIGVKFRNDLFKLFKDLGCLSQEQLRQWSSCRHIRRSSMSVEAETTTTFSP
C-C chemokine receptor type 4 (Homo sapiens), sequence (P51679 whole entry, looked up): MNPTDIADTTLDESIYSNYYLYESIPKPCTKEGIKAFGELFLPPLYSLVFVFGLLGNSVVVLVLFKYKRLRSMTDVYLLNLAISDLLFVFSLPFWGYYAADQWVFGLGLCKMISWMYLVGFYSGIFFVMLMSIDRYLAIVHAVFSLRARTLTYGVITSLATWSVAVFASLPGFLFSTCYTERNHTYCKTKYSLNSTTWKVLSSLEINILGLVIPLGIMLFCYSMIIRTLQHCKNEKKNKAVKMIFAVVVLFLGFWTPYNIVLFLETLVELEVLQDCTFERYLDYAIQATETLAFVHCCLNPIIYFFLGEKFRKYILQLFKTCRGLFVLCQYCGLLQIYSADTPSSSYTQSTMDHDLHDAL

O=C(Nc1ccc2ccccc2c1)NC1CCN(CC2=CCCCCC2)CC1
Ki [1]: 100 nM

CCNC(=O)N1CCCN(c2ccc(C(=O)NCCc3ccc(Cl)cc3Cl)cc2NC(=O)c2cccc(Cl)c2)CC1
IC50 [2]: 63.1 nM | pIC50 [3]: 7

CCNC(=O)N1CCCN(c2ccc(C(=O)NC(C)C)cc2NC(=O)c2cccc(Cl)c2)CC1
IC50 [2]: 2000 nM

CCNC(=O)c1cnc(N2CCN(C3CCN(Cc4ccc(Cl)cc4F)CC3)[C@@H](CC)C2)c(Cl)c1
Ki [4]: 0.316 nM | AUC [5]: 0.95 µM·h

CC(=O)Nc1cccc(/C(C)=N\NC(=O)c2ccc(CN(Cc3ccccc3)S(=O)(=O)c3ccc(Cl)cc3)cc2)c1
IC50 [6]: 100 nM | IC50 [7]: 501 nM | Ki [8]: 6500 nM | Ki [2]: 200 nM

C[C@H]1CN(c2scnc2-c2nc3ccccc3[nH]2)CCN1C(=O)Cn1ccc2cccnc21
IC50 [9]: 398 nM

CCCCCCCCCC(=O)N(CCN(C)C)C(C)c1nc2ccccc2c(=O)n1-c1ccc(F)cc1 (stereo not drawn)
IC50 [2]: 398 nM

CC(=O)c1nc2ccccc2n1CC(=O)c1ccc([N+](=O)[O-])cc1
IC50 [4]: 3160 nM

COc1cc(CN(C[C@H]2CC[C@H](C(=O)O)CC2)[C@H]2CCc3cc(Cl)ccc32)ccc1OCCN1C(=O)CCC1=O
IC50 [4]: 12.6 nM

O=C(Nc1ccccc1)N1CCCC(c2ccccc2)(C2CCN(Cc3ccc(Br)cc3)CC2)C1 (stereo not drawn)
IC50 [6]: 31.6 nM

N#Cc1ccc(CN2CCC(N3CCN(c4ncc(C(=O)NCCOc5ccccc5)cc4Cl)CC3)CC2)cc1
Ki [4]: 100 nM

N#Cc1ccc(S(=O)(=O)N(Cc2ccc(-c3nnn[nH]3)c(F)c2)Cc2ccccc2F)cc1
IC50 [7]: 200 nM | Vd [10]: 1 L/kg | clearance [11]: 28.3 mL/min/kg

CC(=O)N1C2C=C(CN3[C@@H]4CC[C@H]3C[C@H](Nc3ccc5ccc(OC(C)C)cc5n3)C4)CC1CCC2
logD [12]: 2.9 | bioavailability [13]: 69% | CL/F [14]: 9 mL/min/kg | CLint [15]: 9 µL/min/mg

N=C(Nc1ccc(I)cc1)NC1C2CC3CC(C2)CC1C3 (stereo not drawn)
Ki [4]: 158 nM

CC[C@H]1CN(c2nc(N)c(C(N)=O)nc2Cl)CCN1C1CCN(Cc2ccc(Cl)cc2)CC1
Ki [4]: 0.794 nM | AUC [16]: 5.1 µM·h

Cc1ccc(C(=O)N2CCN(CC(=O)Nc3cc(-c4ccccc4)sc3C(N)=O)CC2)cc1
inhibition at 50 µM [17]: 50%

CCNc1nnc(-c2cnc(N3C[C@H](CC)N(C4CCN(Cc5ccc(Cl)cc5)CC4)C[C@H]3C)c(C)n2)o1
inhibition at 10 µM (hERG (KCNH2) [18]): 25%

O=C(Cn1c(=O)[nH]c2ccccc21)N1CCN(c2ncc(Cl)cc2-c2cnc(N3CCC(O)CC3)nc2)CC1
IC50 [19]: 31600 nM

CNc1ncc(-c2cc(C(F)(F)F)ccc2N2CCN(C(=O)Cn3nc(C)cc3C)CC2)cn1
AUC [20]: 271 ng·h/mL

C[C@@H]1CC[C@@]2(OC1)OC1CC3C4CC=C5[C@@H](O[C@@H]6O[C@H](CO)[C@@H](O[C@H]7O[C@H](C)[C@@H](O)[C@H](O)[C@@H]7O)[C@@H](O)[C@H]6O[C@H]6O[C@@H](C)[C@@H](O)[C@H](O)[C@@H]6O)CCC[C@]5(C)C4CC[C@]3(C)C1[C@@H]2C (stereo partly drawn)
IC50 [4]: 501 nM

CCN(CC)C(=O)[C@@H]1C=C2C3C=CCc4[nH]cc(c43)C[C@H]2N(C(=O)Nc2ccccc2)C1 (stereo partly drawn)
IC50 [4]: 50.1 nM | IC50 [2]: 20 nM

Cc1cccc2c1n(C)c(=N)n2CC(=O)c1ccc(Cl)cc1
clearance [21]: 95 mL/min/kg | half-life [22]: 4.9 h | bioavailability [23]: 57%

C[C@H](c1nc2ncccc2c(=O)n1-c1ccc(Cl)cc1)N(CC1CCS(=O)(=O)CC1)C(=O)Cc1ccc(C(F)(F)F)c(F)c1
IC50 [24]: 6.31 nM

CC[C@H]1CN(c2ncc(C(N)=O)nc2C)CCN1C1CCN(Cc2ccc(Cl)nc2N)CC1
inhibition at 3 µM (hERG (KCNH2) [25]): 0%

Cc1ccc(C(Nc2c(Nc3cccc(C(=O)N(C)C)c3O)c(=O)c2=O)C2(C)CCCO2)o1 (stereo not drawn)
IC50 [26]: 1.26 nM | IC50 [27]: 2 nM | IC50 [28]: 63.1 nM | IC50 [29]: 398 nM | IC50 [30]: 7.94 nM

CC[C@H](C)C[C@H](C)C[C@H](C)[C@@H](O[C@@H]1O[C@H](COC(C)=O)[C@@H](O)[C@@H](O)[C@@H]1O)[C@@H](C)/C=C(\C)[C@@H](O)[C@@H](C)/C=C(\C)[C@@H](O)[C@@H](C)/C=C(\C)C(=O)OC[C@@H](O)[C@H](O)[C@H](O)CO
IC50 [4]: 15800 nM

C[C@H](c1nc2ncccc2c(=O)n1-c1ccc(Cl)cc1)N(CC1CCS(=O)(=O)CC1)C(=O)Cc1ccc(F)c(C(F)(F)F)c1
half-life [31]: 4 h | IC50 [24]: 6.31 nM | IC50 [2]: 5.01 nM

CC1(C)[C@H]2CC=C(CN3CCC(Nc4nc(-c5cc(C(F)(F)F)cc(C(F)(F)F)c5)ns4)CC3)[C@@H]1C2
Ki [1]: 251 nM | logD [12]: 5 | CLH [15]: 0.016 mL/min/kg

CC(=O)N1C2C=C(CN3[C@@H]4CC[C@H]3C[C@H](NC(=O)Nc3cc(F)cc(C(F)(F)F)c3)C4)CC1CCC2
Ki [1]: 6.31 nM | logD [12]: 3.1 | solubility [32]: 40 µg/mL (≈ 78.7 µM)
